In patent US9169252B2 (BRISTOL-MYERS SQUIBB COMPANY, priority 2014, dated 2015):

Key:
[1] = system: TLR2 induced IL-6 in peripheral blood mononuclear cells (PBMCs); experiment: PBMC TLR2 Induced IL-6 Assay; format: cell-based, human; settings: Homo sapiens, PBMC, PBMC TLR2 Induced IL-6 Assay, lipoteichoic acid stimulation, IL-6 by ELISA; for EC50: read-out: Cell EC50; for IC50: read-out: Cell IC50
Method in brief: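 Lipoteichoic acid at 10 µg/ml served as TLR2 stimulus for 5 hours, following a 30-minute compound pretreatment at 37° C. Cells were Ficoll-isolated human PBMCs, 250000 cells/well, cultured in RPMI plus 10% heat-inactivated FCS.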

IRAK4 = IRAK4 (Homo sapiens (Human), UniProt Q9NWZ3); experiment: IRAK4 Inhibition Assay; format: biochemical; settings: IRAK4 Inhibition Assay; ATP 500 μM; read-out: IRAK4 IC50
Chain of IRAK4 (Q9NWZ3 whole entry, species assumed): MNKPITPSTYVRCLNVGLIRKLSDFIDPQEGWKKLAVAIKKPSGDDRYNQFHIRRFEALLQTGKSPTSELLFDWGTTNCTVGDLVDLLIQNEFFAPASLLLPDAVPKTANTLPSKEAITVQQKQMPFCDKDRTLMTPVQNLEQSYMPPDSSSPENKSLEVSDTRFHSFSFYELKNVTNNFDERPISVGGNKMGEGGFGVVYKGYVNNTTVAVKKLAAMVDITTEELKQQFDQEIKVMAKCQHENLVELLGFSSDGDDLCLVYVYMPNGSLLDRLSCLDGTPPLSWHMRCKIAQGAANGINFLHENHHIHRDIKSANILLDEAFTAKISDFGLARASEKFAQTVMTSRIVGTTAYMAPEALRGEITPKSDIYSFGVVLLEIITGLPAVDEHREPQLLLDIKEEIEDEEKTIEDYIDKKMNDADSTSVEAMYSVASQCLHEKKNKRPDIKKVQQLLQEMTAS
Method in brief: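 Mobility-shift readout: fluorescent substrate and phosphoproduct resolved electrophoretically on Caliper LabChip 3000 after EDTA quench (35 mM). Enzyme reaction of IRAK4, substrates and test compound ran 60 min at room temperature.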

| Structure (SMILES) | IC50 (IRAK4) | EC50 [1] | IC50 [1] |
| --- | --- | --- | --- |
| CC(C)(O)[C@H](F)CNC(=O)c1cnc(-n2ccc3cc(C#N)cnc32)cc1Nc1cccc(NS(C)(=O)=O)c1 [Example 57, (R)-6-(5-cyano-1H-pyrrolo[2,3-b]pyridin-1-yl)-N-(2-fluoro-3-hydroxy-3-methylbutyl)-4-((3-(methylsulfonamido)phenyl)amino) nicotinamide] | 1.5 nM | 173 nM |  |
| CC(C)Nc1cc(-n2ccc3cc(C#N)cnc32)ncc1C(=O)NCCc1ccc(S(N)(=O)=O)cc1 [Example 58, 6-(5-cyano-1H-pyrrolo[2,3-b]pyridin-1-yl)-4-(isopropylamino)-N-(4-sulfamoylphenethyl)nicotinamide] | 2.7 nM | 49 nM |  |
| CC(C)(O)c1cccc(Nc2cc(-n3ccc4cc(C#N)cnc43)ncc2C(=O)NC[C@@H](F)C(C)(C)O)c1 [Example 59, (R)-6-(5-cyano-1H-pyrrolo[2,3-b]pyridin-1-yl)-N-(2-fluoro-3-hydroxy-3-methylbutyl)-4-((3-(2-hydroxypropan-2-yl)phenyl)amino) nicotinamide] | 1.6 nM | 153 nM |  |
| CC(C)(O)[C@H](F)CNC(=O)c1cnc(-n2ccc3cc(C#N)cnc32)cc1Nc1ccc(C(N)=O)cc1 [Example 60, (R)-4-((4-carbamoylphenyl)amino)-6-(5-cyano-1H-pyrrolo[2,3-b]pyridin-1-yl)-N-(2-fluoro-3-hydroxy-3-methylbutyl)nicotinamide] | 1.8 nM | 24 nM |  |
| CC(C)(O)[C@H](F)CNC(=O)c1cnc(-n2ccc3cc(C#N)cnc32)cc1N[C@H]1CC[C@@](C)(O)CC1 [Example 61, 6-(5-cyano-1H-pyrrolo[2,3-b]pyridin-1-yl)-N—((R)-2-fluoro-3-hydroxy-3-methylbutyl)-4-(((1s,4S)-4-hydroxy-4-methylcyclohexyl)amino)nicotinamide] | 1.3 nM | 34 nM |  |
| CC(C)(O)[C@H](F)CNC(=O)c1cnc(-n2ccc3cc(C#N)cnc32)cc1N[C@H]1CC[C@](C)(O)CC1 [Example 62, 6-(5-cyano-1H-pyrrolo[2,3-b]pyridin-1-yl)-N—((R)-2-fluoro-3-hydroxy-3-methylbutyl)-4-(((trans)-4-hydroxy-4-methylcyclohexyl)amino)nicotinamide] | 3.6 nM | 143 nM |  |
| CC(C)Nc1cc(-n2ccc3cc(C#N)cnc32)ncc1C(=O)NCCNS(C)(=O)=O [Example 63, 6-(5-cyano-1H-pyrrolo[2,3-b]pyridin-1-yl)-4-(isopropylamino)-N-(2-(methylsulfonamido)ethyl)nicotinamide] | 4.1 nM | 12 nM |  |
| CC(C)(O)[C@H](F)CNC(=O)c1cnc(-n2ccc3cc(C#N)cnc32)cc1Nc1ccc2ncsc2c1 [Example 64, (R)-4-(benzo[d]thiazol-6-ylamino)-6-(5-cyano-1H-pyrrolo[2,3-b]pyridin-1-yl)-N-(2-fluoro-3-hydroxy-3-methylbutyl)nicotinamide] | 1.7 nM | 93 nM |  |
| CC(C)(O)[C@H](F)CNC(=O)c1cnc(-n2ccc3cc(C#N)cnc32)cc1NCC1(F)CCC1 [Example 65, (R)-6-(5-cyano-1H-pyrrolo[2,3-b]pyridin-1-yl)-N-(2-fluoro-3-hydroxy-3-methylbutyl)-4-(((1-fluorocyclobutyl)methyl)amino) nicotinamide] | 1.5 nM | 100 nM |  |
| CC(C)(O)[C@H](F)CNC(=O)c1cnc(-n2ccc3cc(C#N)cnc32)cc1Nc1cccc(C#N)c1 [Example 66, (R)-6-(5-cyano-1H-pyrrolo[2,3-b]pyridin-1-yl)-4-((3-cyanophenyl)amino)-N-(2-fluoro-3-hydroxy-3-methylbutyl)nicotinamide] | 1.7 nM | 201 nM |  |
| CC(C)(O)[C@H](F)CNC(=O)c1cnc(-n2ccc3cc(C#N)cnc32)cc1Nc1ccc(-n2cccn2)cc1 [Example 67] | 1.7 nM | 102 nM |  |
| CC(C)(O)[C@H](F)CNC(=O)c1cnc(-n2ccc3cc(C#N)cnc32)cc1Nc1ccc(-n2cncn2)cc1 [Example 68] | 2.1 nM | 30 nM |  |
| Cn1nnnc1-c1ccc(Nc2cc(-n3ccc4cc(C#N)cnc43)ncc2C(=O)NC[C@@H](F)C(C)(C)O)cc1 [Example 69, (R)-6-(5-cyano-1H-pyrrolo[2,3-b]pyridin-1-yl)-N-(2-fluoro-3-hydroxy-3-methylbutyl)-4-((4-(1-methyl-1H-tetrazol-5-yl)phenyl)amino)nicotinamide] | 1.3 nM | 50 nM |  |
| CC(C)Nc1cc(-n2ccc3cc(C#N)cnc32)ncc1C(=O)NCC(=O)NC1CCS(=O)(=O)C1 (stereo not drawn) [Example 70, 6-(5-cyano-1H-pyrrolo[2,3-b]pyridin-1-yl)-N-(2-((1,1-dioxidotetrahydrothiophen-3-yl)amino)-2-oxoethyl)-4-(isopropylamino)nicotinamide] | 2.8 nM | 210 nM |  |
| CC(C)(O)[C@H](F)CNC(=O)c1cnc(-n2ccc3cc(C#N)cnc32)cc1Nc1cccc(CO)c1 [Example 71, (R)-6-(5-cyano-1H-pyrrolo[2,3-b]pyridin-1-yl)-N-(2-fluoro-3-hydroxy-3-methylbutyl)-4-((3-(hydroxymethyl)phenyl)amino)nicotinamide] | 1.5 nM | 28 nM |  |
| CC(F)[C@H](C)Nc1cc(-n2ccc3cc(C#N)cnc32)ncc1C(=O)NC[C@@H](F)C(C)(C)O (stereo partly drawn) [Example 72, 6-(5-cyano-1H-pyrrolo[2,3-b]pyridin-1-yl)-N—((R)-2-fluoro-3-hydroxy-3-methylbutyl)-4-(((2S)-3-fluorobutan-2-yl)amino) nicotinamide] | 2 nM | 72 nM |  |
| CC(C)Nc1cc(-n2ccc3cc(C#N)cnc32)ncc1C(=O)NC1CCc2nc(N)sc2C1 (stereo not drawn) [Example 73, N-(2-amino-4,5,6,7-tetrahydrobenzo[d]thiazol-6-yl)-6-(5-cyano-1H-pyrrolo[2,3-b]pyridin-1-yl)-4-(isopropylamino)nicotinamide] | 13.1 nM | 189 nM |  |
| CC(C)Nc1cc(-n2ccc3cccnc32)ncc1C(=O)NC[C@@H](F)C(C)(C)O [Example 74, (R)—N-(2-fluoro-3-hydroxy-3-methylbutyl)-4-(isopropylamino)-6-(1H-pyrrolo[2,3-b]pyridin-1-yl)nicotinamide] | 4.3 nM |  | 531 nM |
| CC(C)Nc1cc(-n2ccc3cc(C#N)cnc32)ncc1C(=O)NC[C@@H](F)C(C)(C)O [Example 75, (R)-6-(5-cyano-1H-pyrrolo[2,3-b]pyridin-1-yl)-N-(2-fluoro-3-hydroxy-3-methylbutyl)-4-(isopropylamino)nicotinamide] | 7.6 nM |  | 22 nM |

Further lines, with some results ahead:

| IC50 (IRAK4) | Structure (SMILES) | EC50 [1] | IC50 [1] |
| --- | --- | --- | --- |
| 2.6 nM | CC(C)(O)CNc1cc(-n2ccc3cc(C#N)cnc32)ncc1C(=O)NC[C@@H](F)C(C)(C)O [Example 77, (R)-6-(5-cyano-1H-pyrrolo[2,3-b]pyridin-1-yl)-N-(2-fluoro-3-hydroxy-3-methylbutyl)-4-((2-hydroxy-2-methylpropyl)amino)nicotinamide] |  | 161 nM |
| 2.9 nM | CC(CF)Nc1cc(-n2ccc3cc(C#N)cnc32)ncc1C(=O)NC[C@@H](F)C(C)(C)O (stereo partly drawn) [Example 78, 6-(5-cyano-1H-pyrrolo[2,3-b]pyridin-1-yl)-N—((R)-2-fluoro-3-hydroxy-3-methylbutyl)-4-((1-fluoropropan-2-yl)amino)nicotinamide] |  | 63 nM |
| 11.6 nM | CNC(=O)[C@H]1CC[C@H](NC(=O)c2cnc(-n3ccc4cc(C#N)ccc43)cc2NC(C)C)CC1 [Example 79, 6-(5-Cyano-1H-indol-1-yl)-4-(isopropylamino)-N-((trans)-4-(methylcarbamoyl)cyclohexyl)nicotinamide] | 436 nM | 436 nM |
| 1.1 nM | CNC(=O)[C@H]1CC[C@H](NC(=O)c2cnc(-n3ccc4cc(C#N)cnc43)cc2NC(C)C)CC1 [Example 80, 6-(5-cyano-1H-pyrrolo[2,3-b]pyridin-1-yl)-4-(isopropylamino)-N-((trans)-4-(methylcarbamoyl)cyclohexyl)nicotinamide] | 167 nM | 79 nM |
| 14.2 nM | CNC(=O)[C@H]1CC[C@H](NC(=O)c2cnc(-n3ccc4cncnc43)cc2NC(C)C)CC1 [Example 81, 4-(isopropylamino)-N-((trans)-4-(methylcarbamoyl)cyclohexyl)-6-(7H-pyrrolo[2,3-d]pyrimidin-7-yl)nicotinamide] | 121 nM | 565 nM |
| 4.4 nM | CNC(=O)[C@H]1CC[C@H](NC(=O)c2cnc(-n3ccc4cncnc43)cc2NC2CCOCC2)CC1 [Example 82, N-((trans)-4-(methylcarbamoyl)cyclohexyl)-6-(7H-pyrrolo[2,3-d]pyrimidin-7-yl)-4-((tetrahydro-2H-pyran-4-yl)amino)nicotinamide] | 166 nM | 578 nM |
| 4.9 nM | CC(=O)N[C@H]1CC[C@H](NC(=O)c2cnc(-n3ccc4cncnc43)cc2NC2CCOCC2)CC1 [Example 83, N-((trans)-4-acetamidocyclohexyl)-6-(7H-pyrrolo[2,3-d]pyrimidin-7-yl)-4-((tetrahydro-2H-pyran-4-yl)amino)nicotinamide] | 443 nM | 777 nM |
| 9.3 nM | CC(=O)N[C@H]1CC[C@H](NC(=O)c2cnc(-n3ccc4cncnc43)cc2NC(C)C)CC1 [Example 84, N-((trans)-4-acetamidocyclohexyl)-4-(isopropylamino)-6-(7H-pyrrolo[2,3-d]pyrimidin-7-yl)nicotinamide] | 2000 nM | 2010 nM |
